What was measured:
Test in all cases: relative viability (nuclei count vs DMSO), 5 days (fraction); higher = more cells survive
[1] = tested on: NCI-H1734
Procedure, shortened: (§1)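 Each reported value is a median over duplicate plates. It expresses relative viability: treated-well nuclei count divided by vehicle-well nuclei count. Lung cancer cell lines in 1536-well plates were dosed by pin tool a day after seeding, alone with one drug or with a fixed anchor-drug dose plus five library-drug doses (not always all listed) in √10 steps, and nuclei were counted after 5 days.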

[2] = tested on: HARA
Procedure, shortened: as §1

[3] = tested on: NCI-H1993
Procedure, shortened: as §1

[4] = tested on: NCI-H647
Procedure, shortened: as §1

[5] = tested on: UMC-11
Procedure, shortened: as §1

[6] = tested on: NCI-H1395
Procedure, shortened: as §1

[7] = tested on: NCI-H2228
Procedure, shortened: as §1

[8] = tested on: COR-L 105
Procedure, shortened: as §1

[9] = tested on: NCI-H2347
Procedure, shortened: as §1

[10] = tested on: HCC-15
Procedure, shortened: as §1

[11] = tested on: NCI-H1355
Procedure, shortened: as §1

[12] = tested on: NCI-H1792
Procedure, shortened: as §1

[13] = tested on: NCI-H838
Procedure, shortened: as §1

[14] = tested on: SK-MES-1
Procedure, shortened: as §1

[15] = tested on: NCI-H358
Procedure, shortened: as §1

[16] = tested on: NCI-H1793
Procedure, shortened: as §1

[17] = tested on: NCI-H1755
Procedure, shortened: as §1

[18] = tested on: NCI-H2009
Procedure, shortened: as §1

[19] = tested on: HOP-62
Procedure, shortened: as §1

[20] = tested on: COR-L23
Procedure, shortened: as §1

Cc1sc2c(c1C)C(c1ccc(Cl)cc1)=N[C@@H](CC(=O)OC(C)(C)C)c1nnc(C)n1-2 [JQ1] + C[C@]1(O)C[C@@H](c2nc(-c3ccc4ccc(-c5ccccc5)nc4c3)c3c(N)nccn32)C1 [Linsitinib] (partner 1 µM)
relative viability ([1]; first compound 0.04 µM): 0.831 | relative viability ([1]; first compound 0.1265 µM): 0.823 | relative viability ([1]; first compound 0.4 µM): 0.879 | relative viability ([1]; first compound 1.265 µM): 0.63 | relative viability ([1]; first compound 4 µM): 0.418 | relative viability ([2]; first compound 0.04 µM): 0.902 | relative viability ([2]; first compound 0.1265 µM): 0.624 | relative viability ([2]; first compound 0.4 µM): 0.399 | relative viability ([2]; first compound 1.265 µM): 0.205 | relative viability ([2]; first compound 4 µM): 0.163 | relative viability ([3]; first compound 0.04 µM): 0.729 | relative viability ([3]; first compound 0.1265 µM): 0.855 | relative viability ([3]; first compound 0.4 µM): 0.809 | relative viability ([3]; first compound 1.265 µM): 0.829 | relative viability ([3]; first compound 4 µM): 0.736 | relative viability ([4]; first compound 0.04 µM): 1.12 | relative viability ([4]; first compound 0.1265 µM): 0.754 | relative viability ([4]; first compound 0.4 µM): 0.568 | relative viability ([4]; first compound 1.265 µM): 0.151 | relative viability ([4]; first compound 4 µM): 0.16 | relative viability ([5]; first compound 0.04 µM): 0.866 | relative viability ([5]; first compound 0.1265 µM): 0.793 | relative viability ([5]; first compound 0.4 µM): 0.321 | relative viability ([5]; first compound 1.265 µM): 0.237 | relative viability ([5]; first compound 4 µM): 0.203 | relative viability ([6]; first compound 0.04 µM): 0.983 | relative viability ([6]; first compound 0.1265 µM): 0.797 | relative viability ([6]; first compound 0.4 µM): 0.788 | relative viability ([6]; first compound 1.265 µM): 0.562 | relative viability ([6]; first compound 4 µM): 0.486 | relative viability ([7]; first compound 0.04 µM): 1 | relative viability ([7]; first compound 0.1265 µM): 0.743 | relative viability ([7]; first compound 0.4 µM): 0.688 | relative viability ([7]; first compound 1.265 µM): 0.404 | relative viability ([7]; first compound 4 µM): 0.357 | relative viability ([8]; first compound 0.04 µM): 0.868 | relative viability ([8]; first compound 0.1265 µM): 0.579 | relative viability ([8]; first compound 0.4 µM): 0.349 | relative viability ([8]; first compound 1.265 µM): 0.299 | relative viability ([8]; first compound 4 µM): 0.319 | relative viability ([9]; first compound 0.04 µM): 0.934 | relative viability ([9]; first compound 0.1265 µM): 0.747 | relative viability ([9]; first compound 0.4 µM): 0.743 | relative viability ([9]; first compound 1.265 µM): 0.632 | relative viability ([9]; first compound 4 µM): 0.45 | relative viability ([10]; first compound 0.04 µM): 0.732 | relative viability ([10]; first compound 0.4 µM): 0.769 | relative viability ([10]; first compound 1.265 µM): 0.542 | relative viability ([10]; first compound 4 µM): 0.476 | relative viability ([11]; first compound 0.04 µM): 0.813 | relative viability ([11]; first compound 0.1265 µM): 0.817 | relative viability ([11]; first compound 0.4 µM): 0.814 | relative viability ([11]; first compound 1.265 µM): 0.574 | relative viability ([11]; first compound 4 µM): 0.351 | relative viability ([12]; first compound 0.04 µM): 0.587 | relative viability ([12]; first compound 0.4 µM): 0.569 | relative viability ([12]; first compound 1.265 µM): 0.31 | relative viability ([12]; first compound 4 µM): 0.274 | relative viability ([13]; first compound 0.04 µM): 0.954 | relative viability ([13]; first compound 0.1265 µM): 0.543 | relative viability ([13]; first compound 0.4 µM): 0.74 | relative viability ([13]; first compound 1.265 µM): 0.307 | relative viability ([13]; first compound 4 µM): 0.229 | relative viability ([14]; first compound 0.04 µM): 1.02 | relative viability ([14]; first compound 0.1265 µM): 0.752 | relative viability ([14]; first compound 0.4 µM): 0.862 | relative viability ([14]; first compound 1.265 µM): 0.332 | relative viability ([14]; first compound 4 µM): 0.374 | relative viability ([15]; first compound 0.04 µM): 0.645 | relative viability ([15]; first compound 0.1265 µM): 0.829 | relative viability ([15]; first compound 0.4 µM): 0.715 | relative viability ([15]; first compound 1.265 µM): 0.442 | relative viability ([15]; first compound 4 µM): 0.45 | relative viability ([16]; first compound 0.04 µM): 0.936 | relative viability ([16]; first compound 0.1265 µM): 0.755 | relative viability ([16]; first compound 0.4 µM): 0.923 | relative viability ([16]; first compound 1.265 µM): 0.715 | relative viability ([16]; first compound 4 µM): 0.952 | relative viability ([17]; first compound 0.04 µM): 0.985 | relative viability ([17]; first compound 0.1265 µM): 0.987 | relative viability ([17]; first compound 0.4 µM): 1.01 | relative viability ([17]; first compound 1.265 µM): 0.763 | relative viability ([17]; first compound 4 µM): 0.709 | relative viability ([18]; first compound 0.04 µM): 1.13 | relative viability ([18]; first compound 0.1265 µM): 0.995 | relative viability ([18]; first compound 0.4 µM): 0.724 | relative viability ([18]; first compound 1.265 µM): 0.279 | relative viability ([18]; first compound 4 µM): 0.263 | relative viability ([19]; first compound 0.04 µM): 1.01 | relative viability ([19]; first compound 0.1265 µM): 0.869 | relative viability ([19]; first compound 0.4 µM): 0.694 | relative viability ([19]; first compound 1.265 µM): 0.11 | relative viability ([19]; first compound 4 µM): 0.106 | relative viability ([20]; first compound 0.04 µM): 0.931 | relative viability ([20]; first compound 0.1265 µM): 0.74 | relative viability ([20]; first compound 0.4 µM): 0.818 | relative viability ([20]; first compound 1.265 µM): 0.226 | relative viability ([20]; first compound 4 µM): 0.172
